Series [1] in a line: Stability of endoxifen free base in polar organic solvents in the absence and presence of skin. Format: physicochemical. To be noted: for potency and stability in the solvents in the presence of skin: compared with potency in absence of skin after 2 days; for % Potency: relative to initiation of study. The method, then:
(§1) HPLC-UV. Briefly, (E)- and (Z)-endoxifen were analyzed by High Performance Liquid Chromatography, HPLC (instrument: Agilent 1100) using a UV detector (Agilent). Chromatographic resolution was obtained using a Luna Phenyl Hexyl Column ([…]×150 mm) at a column temperature of 40° C. Samples were injected in an injection volume of 10 ul and run at a flow rate of 1.0 ml/min. The mobile phase system used consisted of: A) water with 10 mM ammonium formate (HCOONH4) with 0.03% formic acid and B) Methanol with 10 mM ammonium formate (HCOONH4).
The stability studies of endoxifen free base in various pure polar organic solvents/MPEs were performed as described below. Accelerated stability studies of (Z)-endoxifen free base in solvents/MPEs were performed over a course of 2 days at 45° C. in both the presence and the absence of human cadaver skin to assess the degree to which the (Z)-endoxifen conversion to (E)-endoxifen by isomerization and or chemical degradation of the endoxifen is accelerated upon contact with skin and skin components. (Z)-Endoxifen solutions at ˜80% of saturation concentrations were prepared in 1 ml batches in solvents as listed below in the Table 3. The potencies of (Z)-endoxifen and (E)-endoxifen were determined by HPLC-UV analysis as described above. Potency results are shown compared with potencies measured when the sample were stored at the initiation of stability study.

For series [2] the following is noted: aqueous medium, 45° C., day 15, starting from 98%; cited from earlier work.
Series [3] is described as follows: Solubility of (Z) and (E)-endoxifen in polar organic solvents (HPLC-UV). Format: physicochemical. The method, then: (Z)-endoxifen free base was synthesized as described above in Example 1. (Z)-endoxifen was solubilized in various solvents as provided in Table 1, and tested for physical and chemical stability in solution. The solutions were prepared in ˜1 ml batches typically for solubility and stability testing. The mixture was stirred overnight on a rotisserie at room temperature. The next, […], the suspension was filtered using a syringe filter (0.2 um pore size GHP membrane). The filtrated solution was then analyzed for the concentration of (Z)-endoxifen and (E)-endoxifen as using a validated HPLC-UV method as described below.
as §1
UV detection of (E)-endoxifen and (Z)-endoxifen isomers was performed at 243 nm with a run time of 30 minutes. Retention times for (E)-endoxifen and (Z)-endoxifen were 15.14 m and 16.25 m respectively. […]

[4] abbreviates: in Diethyl Sebacate, 45° C. + skin (human cadaver), 2 days.
Setting [5] is: in Diethylene glycol monoethyl ether, 45° C. + skin (human cadaver), 2 days.
Setting [6] is: in Dimethyl Isosorbide, 45° C. + skin (human cadaver), 2 days.
[7] abbreviates: in Dipropylene Glycol, 45° C. + skin (human cadaver), 2 days.
Setting [8] is: in Isopropyl Myristate, 45° C. + skin (human cadaver), 2 days.
Where [9] appears, read: in PEG 300, 45° C. + skin (human cadaver), 2 days.

For `CC/C(=C(/c1ccc(O)cc1)c1ccc(OCCNC)cc1)c1ccccc1` [(E)-endoxifen free base], in series [1] (45° C.), the “potency and stability in the solvents in the presence of skin” value is “maintained potency and stability”. In addition, the “% Potency” value in series [1] (setting [4]) is reported as 99%; in series [1] (setting [5]) it was 98%; in series [1] (setting [6]) it was 16%; in series [1] (setting [7]), 95%; in series [1] (setting [8]) it was 68%; in series [1] (setting [9]), 92%.
As for `CC/C(=C(\c1ccc(O)cc1)c1ccc(OCCNC)cc1)c1ccccc1.Cl` [(Z)-endoxifen HCl], in series [2], the “(Z)-endoxifen remaining after degradation” value is given as 75%.
`CC/C(=C(\c1ccc(O)cc1)c1ccc(OCCNC)cc1)c1ccccc1` [(Z)-endoxifen free base, (Z)-4-(1-(4-(2-(methylamino)ethoxy)phenyl)-2-phenylbut-1-enyl)phenol]: the “potency and stability in the solvents in the presence of skin” value in series [1] (45° C.) was “maintained potency and stability”. Besides, the “% Potency” value in series [1] (setting [4]) stood at 94%; in series [1] (setting [5]) it was 98%; in series [1] (in Diisopropyl Adipate, 45° C. + skin (human cadaver), 2 days), 99%; in series [1] (setting [6]) it was 17%; in series [1] (setting [7]) it was 94%; in series [1] (setting [8]) it was 63%. Moreover, the “% Potency” value in series [1] (setting [9]) turned out to be 92%. In addition, in series [3] (polar organic solvents of Table 1), the “stability of (Z)-endoxifen in polar organic solvents” value is reported as “surprisingly stable”.
Take `CC/C(=C(\c1ccc(O)cc1)c1ccc(OCCNC)cc1)c1ccccc1` [Total Endoxifen free base, (E/Z)-4-[1-[4-[2-(Methylamino)ethoxy]phenyl]-2-phenyl-1-buten-1-yl]-phenol]: the “stability of dissolved endoxifen” value in series [1] (dissolved in dimethyl isosorbide and isopropyl myristate, 2 days, 45° C.) is “poor stability”. In addition, the “solubility in polar organic solvents/MPEs” value in series [3] (DMSO, ethanol, diethylene monoethyl ether, and oleic acid) was “significantly soluble”.

Source of the values: patent publication US20240148675A1, “TOPICAL COMPOSITIONS AND METHODS FOR TREATMENT” (Atossa Therapeutics, Inc., priority 2017, published 2024).
